Reference: ChEMBL document CHEMBL5543140 (J Med Chem, 2024)
Calls of active or inactive are those of the source. The rule behind the calls is not given here.

Assays:
[1] = MRTlast in Wistar rat brain at 1 mg/kg, iv measured upto 48 hrs; assay type: ADME, organism-based
[2] = tested on: Mus musculus; assay: Induction of neuroplasticity in C57BL/6J mouse assessed as increase in EGR2 mRNA expression in brain frontal cortex at 3 mg/kg, sc single dose by RT-PCR analysis; assay type: functional, organism-based
[3] = target: Alpha-2C adrenergic receptor (Homo sapiens, UniProt P18825); assay: biochemical
Sequence of Alpha-2C adrenergic receptor (P18825 whole entry): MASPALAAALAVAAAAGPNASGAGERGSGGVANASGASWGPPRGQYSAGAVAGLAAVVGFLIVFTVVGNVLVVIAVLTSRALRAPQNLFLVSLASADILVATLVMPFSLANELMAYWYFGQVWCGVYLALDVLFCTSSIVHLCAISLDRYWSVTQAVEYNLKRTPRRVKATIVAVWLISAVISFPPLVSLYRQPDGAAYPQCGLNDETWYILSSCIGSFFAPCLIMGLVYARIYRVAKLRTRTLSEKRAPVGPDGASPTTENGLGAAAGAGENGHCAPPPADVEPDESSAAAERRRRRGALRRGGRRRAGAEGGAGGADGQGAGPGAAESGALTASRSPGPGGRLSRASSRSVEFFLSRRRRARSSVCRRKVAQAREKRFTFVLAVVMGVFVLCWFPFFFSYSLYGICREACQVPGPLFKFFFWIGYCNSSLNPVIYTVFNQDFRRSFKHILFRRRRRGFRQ

[4] = tested on: Hippocampus; assay: Induction of neuroplasticity in C57BL/6J mouse assessed as increase in […] mRNA expression in brain hippocampus at 0.3 mg/kg, sc single dose by RT-PCR analysis; assay type: functional, organism-based
[5] = MRTlast in Wistar rat brain at 5 mg/kg, po measured upto 48 hrs; assay type: ADME, organism-based
[6] = target: 5-hydroxytryptamine receptor 2A (Homo sapiens, UniProt P28223); assay: Binding affinity to human [125I]LSD-labeled 5-HT2A receptor expressed in HEK293 cell membrane incubated for 60 mins; assay type: cell membranes
Sequence of 5-hydroxytryptamine receptor 2A (P28223 whole entry): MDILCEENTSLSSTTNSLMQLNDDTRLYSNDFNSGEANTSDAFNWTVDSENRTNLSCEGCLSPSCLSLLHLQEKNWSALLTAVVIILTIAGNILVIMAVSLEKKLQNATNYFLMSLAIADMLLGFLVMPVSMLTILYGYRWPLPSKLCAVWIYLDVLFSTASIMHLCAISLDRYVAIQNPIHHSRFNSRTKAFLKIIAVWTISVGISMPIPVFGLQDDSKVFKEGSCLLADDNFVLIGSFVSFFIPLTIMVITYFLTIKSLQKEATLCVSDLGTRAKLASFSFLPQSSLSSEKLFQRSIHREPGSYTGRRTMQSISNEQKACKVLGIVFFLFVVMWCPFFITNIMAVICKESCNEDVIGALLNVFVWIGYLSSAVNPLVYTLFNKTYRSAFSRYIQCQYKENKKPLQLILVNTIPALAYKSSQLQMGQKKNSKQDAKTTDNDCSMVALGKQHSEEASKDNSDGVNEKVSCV

[7] = Half life in Wistar rat brain at 1 mg/kg, iv measured upto 48 hrs; assay type: ADME, organism-based
[8] = Metabolic stability in human hepatocytes assessed as half life at 10 uM; assay type: ADME, cell-based, Hepatocyte
[9] = tested on: Mus musculus; assay: Locomotor activity in C57BL/6J mouse assessed as distance traveled at 3 mg/kg, po measured for 15 to 25 mins (reference value: 1710 +/- 120 cm) by Ethovision tracking system; assay type: functional; details: time 15-25 min
[10] = target: T1, 5-hydroxytryptamine receptor 1A (Homo sapiens) (UniProt P08908); assay: Displacement of [3H]-8-OH-DPAT from 5-HT1A receptor (unknown origin) assessed as inhibition binding at 10 uM relative to control
T1 sequence (whole entry): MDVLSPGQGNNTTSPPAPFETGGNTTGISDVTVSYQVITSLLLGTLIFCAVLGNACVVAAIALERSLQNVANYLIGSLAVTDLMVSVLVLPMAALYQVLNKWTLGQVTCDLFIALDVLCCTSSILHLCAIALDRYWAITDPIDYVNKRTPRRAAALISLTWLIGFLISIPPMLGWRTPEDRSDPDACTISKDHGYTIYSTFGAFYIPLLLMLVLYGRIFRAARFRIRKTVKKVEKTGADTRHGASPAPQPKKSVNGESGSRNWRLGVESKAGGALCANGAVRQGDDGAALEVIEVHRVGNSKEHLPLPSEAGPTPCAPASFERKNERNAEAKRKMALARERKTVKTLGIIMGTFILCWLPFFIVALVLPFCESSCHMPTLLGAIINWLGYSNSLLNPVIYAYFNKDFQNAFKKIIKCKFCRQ

[11] = Metabolic stability in mouse liver S9 fractions assessed as half life; assay type: ADME, subcellular; details: liver S9 fraction
[12] = Volume of distribution at steady state in male Sprague-Dawley rat plasma at 1 mg/kg, iv measured upto 8 hrs by LC-MS/MS analysis; assay type: ADME, organism-based; details: read-out: Vdss
[13] = tested on: Mus musculus; assay: Induction of neuroplasticity in C57BL/6J mouse assessed as increase in Homer1 mRNA expression in brain frontal cortex at 3 mg/kg, sc single dose by RT-PCR analysis; assay type: functional, organism-based
[14] = Ex vivo binding in C57BL/6J mouse brain frontal cortex assessed as specific binding [3H]Cimbi-36 at 1 mg/kg, sc measured after 220 mins by liquid scintillation counting analysis (reference value: 1092 +/- 53); assay type: functional; details: 3.667 h
[15] = Metabolic stability in human liver S9 fractions assessed as half life; assay type: ADME, subcellular; details: liver S9 fraction
[16] = Ex vivo binding in C57BL/6J mouse brain frontal cortex assessed as inhibition of [3H]Cimbi-36 binding at 1 mg/kg, sc measured after 15 mins by liquid scintillation counting analysis (reference value: 0%); assay type: functional; details: 0.25 h
[17] = tested on: Hippocampus; assay: Induction of neuroplasticity in C57BL/6J mouse assessed as increase in PSD-95 mRNA expression in brain hippocampus at 3 mg/kg, sc single dose by RT-PCR analysis; assay type: functional, organism-based
[18] = target: 5-hydroxytryptamine receptor 2B (Homo sapiens, UniProt P41595); assay: Binding affinity to human [125I]LSD-labeled 5-HT2B receptor expressed in CHO cell membrane incubated for 60 mins; assay type: cell membranes
Sequence of 5-hydroxytryptamine receptor 2B (P41595 whole entry): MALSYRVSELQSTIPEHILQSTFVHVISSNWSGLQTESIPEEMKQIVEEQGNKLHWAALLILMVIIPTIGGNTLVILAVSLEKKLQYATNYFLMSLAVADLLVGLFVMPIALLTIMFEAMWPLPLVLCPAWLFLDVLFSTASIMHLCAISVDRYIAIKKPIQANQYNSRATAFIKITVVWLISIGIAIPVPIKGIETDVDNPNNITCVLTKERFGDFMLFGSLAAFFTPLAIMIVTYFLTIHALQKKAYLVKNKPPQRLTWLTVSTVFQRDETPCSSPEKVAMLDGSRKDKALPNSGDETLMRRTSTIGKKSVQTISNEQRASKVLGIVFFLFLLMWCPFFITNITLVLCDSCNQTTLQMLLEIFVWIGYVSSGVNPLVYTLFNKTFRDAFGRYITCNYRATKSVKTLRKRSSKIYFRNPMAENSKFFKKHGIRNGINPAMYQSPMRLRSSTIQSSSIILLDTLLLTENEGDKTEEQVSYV

[19] = Cmax in mouse C57BL/6J brain at 3 mg/kg, po measured after 1 hrs; assay type: ADME, organism-based
[20] = Clearance in male Sprague-Dawley rat plasma at 1 mg/kg, iv measured upto 8 hrs by LC-MS/MS analysis; assay type: ADME, organism-based
[21] = Tmax in Wistar rat brain at 5 mg/kg, po measured upto 48 hrs; assay type: ADME, organism-based

For `COc1cc([Se]C(F)(F)F)c(OC)cc1CCN.Cl`, the MRT last at 48 h [1] was 2.54 h, the Activity [2] was “Active” and the Ki [3] was 108 nM. For the same compound, the Activity [4] was “inactive”, the MRT last at 48 h [5] was 3.3 h and the Ki [6] was 4.1 nM. It also gave a half-life [7] of 2.44 h, a half-life at 10 µM [8] of 16 h and an Activity [9] of 3008 cm. For the same compound, the inhibition [10] was 98%, the half-life [11] was > 2 h and the Vd [12] was 5.67 L/kg. The Activity [13] was “Active”, the Activity [14] was 796 and the half-life [15] was > 2 h. For the same compound, the inhibition in vivo at 1 mg/kg [16] was 11%, the Activity [17] was “inactive” and the Ki [18] was 10 nM. For the same compound, the Cmax [19] was 2370 ng/g, the clearance [20] was 79.5 mL/min/kg and the Tmax [21] was 2 h.
